Residues, ends and D or L forms follow the SMILES beside them.
Assays:
[1] = tested on: E. coli ATCC 25922; type: cell-based, Escherichia coli; settings: ATCC 25922, 18 h
Description: (§1) E. coli ML35p, Listeria monocytogenes EGD, methicillin-resistant Staphylococcus aureus (MRSA) ATCC 33591 were kindly provided by Prof. Robert Lehrer (University of California, Los Angeles, CA, USA); E. coli ATCC 25922, E. coli M15, Pseudomonas aeruginosa ATCC 27853, S. aureus ATCC 25923 were provided by Dr. Elena Ermolenko (Institute of Experimental Medicine, St-Petersburg, Russia); drug-resistant clinical isolates were provided by Prof. Gennadiy Afinogenov (Saint Petersburg State University, Russia); S. aureus 710A has been described previously. The following clinical isolates of bacteria were used: P.s aeruginosa resistant to aztreonam, ceftazidime, cefotaxime (obtained from the urine of a patient with cystitis), Acinetobacter baumannii resistant to meropenem (from an infected wound); Staphylococcus intermedius (from an infected wound caused by a dog bite) resistant to ciprofloxacin, cefuroxime, clindamycin, erythromycin, rifampin, gentamicin, benzylpenicillin, oxacillin.
(§2) This assay was applied to determine the MIC, according to the guidelines of the Clinical and Laboratory Standards Institute, using Mueller Hinton (MH) Broth. We prepared 2x stocks of peptides and serially diluted them in sterile PBS instead of Mueller Hinton Broth, so that the treatment of the bacteria with the peptides was carried out in a medium containing 50% of MH and 50% of PBS, as described. The overnight cultures of each strain were transferred to fresh MH media and further incubated to obtain a mid-logarithmic-growth-phase culture of bacteria. The absorbance of each bacterial suspension was measured at 620 nm, and bacteria were then diluted to approximately 2 × 10^5 CFU/mL. Then, 50 µL of the suspensions were mixed with 50 µL of the peptide dilutions in the wells of a microtiter plate (pre-treated for 1 h at 37 °C with 0.2% bovine serum albumin (BSA) in water, sterilized by filtration, to diminish the non-specific binding of the peptides to the plastic surfaces).

[2] = tested on: E. coli M15; type: cell-based, Escherichia coli; settings: M15, 18 h
Description: as §1, §2

[3] = tested on: Escherichia coli ML35p; type: cell-based; settings: broth microdilution, 50% Mueller Hinton broth / 50% PBS, 18 h at 37 °C, median of 3–5 experiments in triplicates
Description: as §1, §2

[4] = tested on: Pseudomonas aeruginosa ATCC 27853; type: cell-based; settings: ATCC 27853, 18 h
Description: as §1, §2

[5] = tested on: Listeria monocytogenes EGD; type: cell-based; settings: 18 h
Description: as §1, §2

[6] = tested on: Staphylococcus aureus 710A; type: cell-based; settings: 18 h
Description: as §1, §2

[7] = tested on: Staphylococcus intermidius; type: cell-based, Staphylococcus intermedius; settings: 18 h
Description: as §1, §2

[8] = tested on: set of Gram-negative and Gram-positive bacteria, including drug-resistant clinical isolates; type: cell-based; settings: 12 strains; median MICs used; MIC > 16 µM taken as 32 µM
Experimental: To obtain a global assessment of the effect on antimicrobial activity, the geometric mean of the MIC (G-MIC) was calculated, and from this, the overall improvement or impoverishment with respect to arenicin-1. In general, inverting the symmetry or decreasing the charge had detrimental effects.
The overall activity against a set of tested bacterial strains was determined by way of the commonly used geometric mean of measured MIC values. […] At the same time, the geometric mean can still discriminate antimicrobial agents showing minor variations in activity; in other words, it has a better “resolution” than the median MIC (MIC50). Some mathematical basics for choosing the geometric mean for antimicrobial activity comparison are further discussed in the Supplementary Chapter S3.

[9] = tested on: human erythroleukemia K-562 cells; type: cell-based; settings: 24 h
Experimental: The standard MTT ((3-(4,5-Dimethylthiazol-2-yl)-2,5-diphenyltetrazolium bromide) test was used for the examination of the cytotoxic activity of AMPs towards human erithroleukemia cells K-562. The cells were purchased from Biolot (Saint Petersburg, Russia) and were grown in RPMI 1640 medium (Biolot, Saint Petersburg, Russia) supplemented with glutamine and 10% FCS. Before the experiment, the culturing medium was replaced with serum-free RPMI 1640. Serial dilutions of the peptides in RPMI were plated in sterile 96-well microplates, and the target cells were dispensed to the microplates (10^5 cells/well in RPMI 1640). The plates were incubated for 24 h at 37 °C under 5% CO2. Cell-free media and cells incubated without peptides served as controls. Four hours before the incubation ended, MTT in PBS (5 mg/mL) was added to each well. After the incubation was stopped by adding isopropanol/ 0.04 M HCl, the optical density was measured at 540 nm, subtracting the background absorbance at 690 nm. Toxicity was determined by nonlinear regression analysis of the corresponding dose–response curves using the Sigma Plot 11 program to calculate the IC50 values (the concentration of the test substance that reduced the OD540 capacity by 50%).

[10] = tested on: MRSA ATCC 33591; type: cell-based, Staphylococcus aureus; settings: ATCC 33591, 18 h
Description: as §1, §2

[11] = tested on: S. aureus c.i.; type: cell-based, Staphylococcus aureus; settings: 18 h
Description: as §1, §2

[12] = tested on: S. aureus ATCC 25923; type: cell-based, Staphylococcus aureus; settings: ATCC 25923, 18 h
Description: as §1, §2

[13] = tested on: P. aeruginosa c.i.; type: cell-based, Pseudomonas aeruginosa; settings: 18 h
Description: as §1, §2

[14] = tested on: Acinetobacter baumanii c.i.; type: cell-based, Acinetobacter baumannii; settings: 18 h
Description: as §1, §2

Structure (SMILES)	Minimal Inhibitory Concentrations (MIC) [1]	Minimal Inhibitory Concentrations (MIC) [2]	Minimal Inhibitory Concentrations (MIC) [3]	Minimal Inhibitory Concentrations (MIC) [4]	Minimal Inhibitory Concentrations (MIC) [5]	Minimal Inhibitory Concentrations (MIC) [6]	Minimal Inhibitory Concentrations (MIC) [7]	G-MIC (geometric mean of all determined MICs) [8]	IC50 [9]	Minimal Inhibitory Concentrations (MIC) [10]	Minimal Inhibitory Concentrations (MIC) [11]	Minimal Inhibitory Concentrations (MIC) [12]	Minimal Inhibitory Concentrations (MIC) [13]	Minimal Inhibitory Concentrations (MIC) [14]
CC(C)C[C@@H]1NC(=O)[C@H](C(C)C)NC(=O)[C@H](CCCNC(=N)N)NC(=O)[C@H](Cc2ccc(O)cc2)NC(=O)[C@H](CCCNC(=N)N)NC(=O)[C@H](CCCNC(=N)N)NC(=O)[C@@H](NC(=O)[C@@H](N)Cc2c[nH]c3ccccc23)CSSC[C@H](NC(=O)[C@@H](N)Cc2c[nH]c3ccccc23)C(=O)N[C@@H](CCCNC(=N)N)C(=O)N[C@@H](CCCNC(=N)N)C(=O)N[C@@H](Cc2ccc(O)cc2)C(=O)N[C@@H](CCCNC(=N)N)C(=O)N[C@@H](C(C)C)C(=O)N[C@@H](CC(C)C)C(=O)N[C@@H](C(C)C)C(=O)N[C@H](C(=O)N[C@@H](CN)C(N)=O)CCCNC(=O)[C@H](C(C)C)NC1=O [ARs-C-B] (HELM PEPTIDE1{W.C.R.R.Y.R.V.L.V.[Orn].[NC[C@H](N[*:1])C(=O)[*:2]].[am]}|PEPTIDE2{W.C.R.R.Y.R.V.L.V}$PEPTIDE1,PEPTIDE2,2:R3-2:R3|PEPTIDE1,PEPTIDE2,10:R3-9:R2$$$V2.0; N-terminus assumed)	4 µM	8 µM	1 to 2 µM	1 µM	2 µM	4 µM	4 µM	4.4 µM	39 µM	8 µM	4 to 8 µM	4 µM	16 µM	8 to 16 µM
CC(C)C[C@@H]1NC(=O)[C@H](C(C)C)NC(=O)CNC(=O)[C@H](CCCNC(=N)N)NC(=O)[C@H](C(C)C)NC(=O)[C@H](CC(C)C)NC(=O)[C@H](C(C)C)NC(=O)[C@H](CCCNC(=N)N)NC(=O)[C@H](Cc2ccc(O)cc2)NC(=O)[C@H](CCCNC(=N)N)NC(=O)[C@H](CCCNC(=N)N)NC(=O)[C@@H](NC(=O)[C@@H](N)Cc2c[nH]c3ccccc23)CSSC[C@@H](C(=O)N[C@@H](Cc2c[nH]c3ccccc23)C(=O)O)NC(=O)[C@H](CCCNC(=N)N)NC(=O)[C@H](CCCNC(=N)N)NC(=O)[C@H](Cc2ccc(O)cc2)NC(=O)[C@H](CCCNC(=N)N)NC(=O)[C@H](C(C)C)NC1=O [ARs-C] (HELM PEPTIDE1{W.C.R.R.Y.R.V.L.V.R.G.V.L.V.R.Y.R.R.C.W}$PEPTIDE1,PEPTIDE1,2:R3-19:R3$$$V2.0; N-terminus assumed)	2 µM	2 µM	1 µM	1 µM	1 µM	2 to 4 µM	8 µM	3.2 µM	11.6 µM	4 to 8 µM	16 µM	4 µM	16 µM	2 µM
CC(C)[C@@H]1NC(=O)[C@H](CCCNC(=N)N)NC(=O)[C@H](C(C)C)NC(=O)[C@H](Cc2ccc(O)cc2)NC(=O)[C@H](C)NC(=O)[C@H](Cc2ccc(O)cc2)NC(=O)[C@H](C(C)C)NC(=O)[C@@H](NC(=O)[C@H](Cc2c[nH]c3ccccc23)NC(=O)[C@@H](N)CCCNC(=N)N)CSSC[C@H](NC(=O)[C@H](Cc2c[nH]c3ccccc23)NC(=O)[C@@H](N)CCCNC(=N)N)C(=O)N[C@@H](C(C)C)C(=O)N[C@@H](Cc2ccc(O)cc2)C(=O)N[C@@H](C)C(=O)N[C@@H](Cc2ccc(O)cc2)C(=O)N[C@@H](C(C)C)C(=O)N[C@@H](CCCNC(=N)N)C(=O)N[C@@H](C(C)C)C(=O)N[C@H](C(=O)N[C@@H](CN)C(N)=O)CCCNC1=O [ARs-N-B] (HELM PEPTIDE1{R.W.C.V.Y.A.Y.V.R.V.[Orn].[NC[C@H](N[*:1])C(=O)[*:2]].[am]}|PEPTIDE2{R.W.C.V.Y.A.Y.V.R.V}$PEPTIDE1,PEPTIDE2,3:R3-3:R3|PEPTIDE1,PEPTIDE2,11:R3-10:R2$$$V2.0)	8 µM	4 µM	4 µM	2 µM	2 to 4 µM	8 µM	8 µM	5.9 µM	35.1 µM	8 µM	8 µM	8 µM	16 µM	4 µM
CC(C)[C@@H]1NC(=O)CNC(=O)[C@H](CCCNC(=N)N)NC(=O)[C@H](C(C)C)NC(=O)[C@H](CCCNC(=N)N)NC(=O)[C@H](C(C)C)NC(=O)[C@H](Cc2ccc(O)cc2)NC(=O)[C@H](C)NC(=O)[C@H](Cc2ccc(O)cc2)NC(=O)[C@H](C(C)C)NC(=O)[C@@H](NC(=O)[C@H](Cc2c[nH]c3ccccc23)NC(=O)[C@H](CCCNC(=N)N)NC(=O)[C@@H](N)CCCNC(=N)N)CSSC[C@@H](C(=O)N[C@@H](Cc2c[nH]c3ccccc23)C(=O)O)NC(=O)[C@H](C(C)C)NC(=O)[C@H](Cc2ccc(O)cc2)NC(=O)[C@H](C)NC(=O)[C@H](Cc2ccc(O)cc2)NC(=O)[C@H](C(C)C)NC(=O)[C@H](CCCNC(=N)N)NC1=O [ARs-N] (HELM PEPTIDE1{R.R.W.C.V.Y.A.Y.V.R.V.R.G.V.R.V.Y.A.Y.V.C.W}$PEPTIDE1,PEPTIDE1,4:R3-21:R3$$$V2.0; N-terminus assumed)	>16 µM	>16 µM	16 µM	>16 µM	8 µM	>16 µM	>16 µM	≥26.9 µM	18 µM	>16 µM	>16 µM	>16 µM	>16 µM	>16 µM

— article PMC6627698, “Redesigning Arenicin-1, an Antimicrobial Peptide from the Marine Polychaeta Arenicola marina, by Strand Rearrangement or Branching, Substitution of Specific Residues, and Backbone Linearization or Cyclization” (Marine Drugs, 2019)
